Data: ChEMBL document CHEMBL1149887, “Enantiospecific synthesis and cytotoxicity of 7-(4-methoxyphenyl)-6-phenyl-2,3,8,8a-tetrahydroindolizin-5(1H)-one enantiomers” (Bioorg Med Chem, 2008)

Tested on: HCT-116
Experiment: Cytotoxicity against human HCT116 cells
Assay type: functional, cell-based

COc1ccc(C2=C(c3ccccc3)C(=O)N3CCC[C@H]3C2)cc1
IC50: 390 nM

COc1ccc(C2=C(c3ccccc3)C(=O)N3CCC[C@@H]3C2)cc1
IC50: 200 nM

COc1cc2c3c(c4cc(OC)c(OC)cc4c2cc1OC)CN1CCCC1C3 (racemic) [(+/-)-TYLOPHORINE]
IC50: 670 nM
